Earlier results, collected in patent US20250339568A1, “PRECURSOR AND RADIOTRACER FOR NEUROENDOCRINE THERANOSTICS” (ITM Oncologics GmbH, priority 2021, published 2025).

Molecular target: T1, HEK293-SSR2 tumour cells (Homo sapiens, UniProt P30874)
T1 construct: host or cells: HEK293-SSR2 tumour cells
Settings: reference example of EP 2 801 582 A1, Table 12

T1 sequence (P30874 whole entry): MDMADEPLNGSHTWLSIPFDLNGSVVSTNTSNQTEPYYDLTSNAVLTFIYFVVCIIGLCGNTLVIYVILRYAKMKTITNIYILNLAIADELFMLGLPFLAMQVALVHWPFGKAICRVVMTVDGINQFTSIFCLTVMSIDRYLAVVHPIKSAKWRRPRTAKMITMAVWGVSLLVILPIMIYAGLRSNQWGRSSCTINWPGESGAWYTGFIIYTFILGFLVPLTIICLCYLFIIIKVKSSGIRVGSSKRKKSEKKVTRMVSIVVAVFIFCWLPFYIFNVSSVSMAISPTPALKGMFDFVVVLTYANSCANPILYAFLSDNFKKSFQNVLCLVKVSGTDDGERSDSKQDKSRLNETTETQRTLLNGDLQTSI

uptake in HEK293-SSR2 tumour cells: without quantifiable uptake
Substance: DOTA-Cpa-cyclo[DCys-Pal-DAph(Cbm)-Lys-Thr-Cys]DTyr-NH2
